Measured values reported in ChEMBL document CHEMBL4699404, “Arylsulfonyl histamine derivatives as powerful and selective alpha-glucosidase inhibitors” (RSC Med Chem, 2020).
Active and inactive are the calls of the source. The calls are words filed in the database; no cut-off is given here.

Assays:
Saccharomyces cerevisiae [1] = test: Inhibition of Saccharomyces cerevisiae alpha-glucosidase using p-nitrophenyl-alpha-o-D-glucopyranoside as substrate at 100 uM measured for 10 mins by microplate assay relative to control
[2] = Inhibition of Kluyveromyces lactis beta-galactosidase using o-nitrophenyl-beta-o-D-galactopyranoside as substrate measured for 10 mins
Kluyveromyces lactis = test: Inhibition of Kluyveromyces lactis beta-galactosidase using o-nitrophenyl-beta-o-D-galactopyranoside as substrate at 100 to 2500 uM measured for 10 mins; details: dose microM 100-2500, time 10.0 min
[3] = target: Mushroom tyrosinase (Agaricus bisporus) (UniProt O42713+Q00024+C7FF04+C7FF05); test: Inhibition of mushroom tyrosinase assessed as reduction in dopachrome formation at 40 uM using L-tyrosine as substrate measured for 30 mins by microplate assay
[4] = target: Xanthine dehydrogenase/oxidase (Bos taurus, UniProt P80457); test: Inhibition of bovine milk xanthine oxidase assessed as reduction in uric acid formation at 3 uM using xanthine as substrate measured for 20 mins by microplate assay; details: cattle
Chain of Xanthine dehydrogenase/oxidase (P80457 whole entry): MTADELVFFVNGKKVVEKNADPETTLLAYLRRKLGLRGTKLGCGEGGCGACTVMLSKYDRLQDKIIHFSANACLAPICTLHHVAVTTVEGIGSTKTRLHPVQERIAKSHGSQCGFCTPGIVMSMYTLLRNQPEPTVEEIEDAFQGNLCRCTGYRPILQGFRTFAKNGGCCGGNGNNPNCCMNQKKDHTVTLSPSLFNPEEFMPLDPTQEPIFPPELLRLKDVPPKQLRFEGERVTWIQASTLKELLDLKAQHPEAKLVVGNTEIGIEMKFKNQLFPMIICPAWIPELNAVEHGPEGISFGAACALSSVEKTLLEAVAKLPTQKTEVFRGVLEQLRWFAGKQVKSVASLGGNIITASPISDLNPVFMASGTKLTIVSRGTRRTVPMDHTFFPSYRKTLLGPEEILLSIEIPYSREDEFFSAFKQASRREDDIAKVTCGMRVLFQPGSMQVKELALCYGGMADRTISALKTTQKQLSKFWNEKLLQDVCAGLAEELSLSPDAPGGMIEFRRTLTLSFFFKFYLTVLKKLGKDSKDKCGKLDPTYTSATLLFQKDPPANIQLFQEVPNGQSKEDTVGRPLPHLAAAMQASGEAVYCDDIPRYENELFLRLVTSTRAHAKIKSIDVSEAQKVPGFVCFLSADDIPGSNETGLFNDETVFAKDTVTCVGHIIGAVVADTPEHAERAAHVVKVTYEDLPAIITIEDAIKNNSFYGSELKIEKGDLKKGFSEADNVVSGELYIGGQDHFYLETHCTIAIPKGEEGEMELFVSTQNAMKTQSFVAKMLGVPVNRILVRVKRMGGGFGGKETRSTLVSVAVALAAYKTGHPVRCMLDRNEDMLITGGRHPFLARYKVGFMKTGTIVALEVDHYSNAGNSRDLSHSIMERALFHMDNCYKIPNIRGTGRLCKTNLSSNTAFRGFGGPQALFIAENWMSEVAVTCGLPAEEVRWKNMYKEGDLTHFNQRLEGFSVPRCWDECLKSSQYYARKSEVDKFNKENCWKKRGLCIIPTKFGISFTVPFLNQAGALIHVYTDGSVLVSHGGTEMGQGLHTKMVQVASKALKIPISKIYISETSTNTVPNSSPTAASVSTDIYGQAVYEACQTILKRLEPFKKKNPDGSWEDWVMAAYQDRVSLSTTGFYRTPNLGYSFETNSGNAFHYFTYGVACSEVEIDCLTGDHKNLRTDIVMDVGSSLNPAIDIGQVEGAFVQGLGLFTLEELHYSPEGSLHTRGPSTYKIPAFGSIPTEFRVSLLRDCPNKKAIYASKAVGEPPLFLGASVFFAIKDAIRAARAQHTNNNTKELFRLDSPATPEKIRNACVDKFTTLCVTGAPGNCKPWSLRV

Prunus dulcis = test: Inhibition of almonds beta-glucosidase using p-nitrophenyl-beta-o-D-glucopyranoside as substrate at 65 uM measured for 10 mins
[5] = target: Acetylcholinesterase (Electrophorus electricus) (UniProt O42275); test: Inhibition of electric eel AChE using acetylthiocholine iodide as substrate at 1.5 uM measured for 15 mins by Ellman's method relative to control
Chain of Acetylcholinesterase (Electrophorus electricus) (O42275 24-633 limits assumed): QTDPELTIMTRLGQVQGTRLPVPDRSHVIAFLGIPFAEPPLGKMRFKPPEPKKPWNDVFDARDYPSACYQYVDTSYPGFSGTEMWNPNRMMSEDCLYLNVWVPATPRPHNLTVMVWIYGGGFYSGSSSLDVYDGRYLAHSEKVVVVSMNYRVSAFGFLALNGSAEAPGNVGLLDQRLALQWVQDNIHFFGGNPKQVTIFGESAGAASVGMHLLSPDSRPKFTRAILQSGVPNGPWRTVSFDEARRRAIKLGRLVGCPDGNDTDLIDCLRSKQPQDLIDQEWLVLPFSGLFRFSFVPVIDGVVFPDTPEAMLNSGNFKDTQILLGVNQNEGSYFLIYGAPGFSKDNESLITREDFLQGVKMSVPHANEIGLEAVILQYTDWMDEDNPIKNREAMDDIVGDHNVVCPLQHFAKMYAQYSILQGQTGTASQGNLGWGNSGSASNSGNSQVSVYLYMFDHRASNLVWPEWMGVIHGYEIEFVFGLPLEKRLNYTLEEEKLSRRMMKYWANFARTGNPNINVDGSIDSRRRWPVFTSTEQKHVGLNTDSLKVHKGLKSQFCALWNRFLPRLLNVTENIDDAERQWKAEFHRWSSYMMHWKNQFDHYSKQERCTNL

Saccharomyces cerevisiae [6] = test: Inhibition of Saccharomyces cerevisiae alpha-glucosidase using p-nitrophenyl-alpha-o-D-glucopyranoside as substrate at 122 uM measured for 10 mins by microplate assay relative to control
[7] = Inhibition of porcine pancreatic alpha-amylase assessed as reduction in conversion of starch to glucose using starch as substrate at 200 uM incubated for 15 mins by starch-iodine method; design: species or system Sus scrofa; details: pig, 0.25 h
[8] = Inhibition of almonds beta-glucosidase using p-nitrophenyl-beta-o-D-glucopyranoside as substrate measured for 10 mins; design: species or system Prunus dulcis
[9] = Toxicity against C57BL/6 mouse assessed as locomotory changes at 22.5 mg/kg, po administered via gavage; format: organism-based; details: in vivo
[10] = Toxicity against C57BL/6 mouse assessed as changes in food consumption at 22.5 mg/kg, po administered via gavage measured for 24 hrs; format: organism-based; details: in vivo
[11] = Toxicity against C57BL/6 mouse assessed as behavioural changes at 22.5 mg/kg, po administered via gavage; format: organism-based; details: in vivo
[12] = Toxicity against C57BL/6 mouse assessed as changes in water consumption at 22.5 mg/kg, po administered via gavage measured for 24 hrs; format: organism-based; details: in vivo
[13] = Toxicity against C57BL/6 mouse assessed as general body position changes at 22.5 mg/kg, po administered via gavage; format: organism-based; details: in vivo
Saccharomyces cerevisiae [14] = test: Reversible inhibition of Saccharomyces cerevisiae alpha-glucosidase assessed as recovery of enzyme activity preincubated with enzyme for 30 mins followed by 100-fold dilution and challenge with substrate by jump dilution experiment based microplate assay; design: scale not given: the % may be the effect or the level left
Mus musculus [15] = test: Hypoglycemic activity in C57BL/6 mouse assessed as reduction in sucrose-induced postprandial blood glucose level at 22.5 mg/kg, po administered via gavage and measured after 15 to 90 mins by oral sucrose loading test; format: functional, organism-based; details: time min 15-90
Mus musculus [16] = test: Hypoglycemic activity in C57BL/6 mouse assessed as reduction in postprandial blood glucose level at 22.5 mg/kg, po administered via gavage measured after 15 to 90 mins by glucometric analysis; format: functional, organism-based; details: time min 15-90
Saccharomyces cerevisiae [17] = test: Potency index, ratio of acarbose Ki to test compound Ki for competitive inhibition of Saccharomyces cerevisiae alpha-glucosidase using varying levels of p-nitrophenyl-alpha-D-glucopyranoside as substrate by Lineweaver-Burk plot analysis

## COc1ccc(S(=O)(=O)NCCc2c[nH]cn2)cc1F
Saccharomyces cerevisiae [1]
  inhibition: < 50%

## O=S(=O)(NCCc1c[nH]cn1)c1cc(F)c(F)c(F)c1
Saccharomyces cerevisiae [1]
  inhibition: < 50%

## Cc1ccc(F)c(S(=O)(=O)NCCc2c[nH]cn2)c1
Saccharomyces cerevisiae [1]
  inhibition: < 50%

## O=S(=O)(NCCc1c[nH]cn1)c1ccc(F)cc1C(F)(F)F
Saccharomyces cerevisiae [1]
  inhibition: < 50%

## O=S(=O)(NCCc1c[nH]cn1)c1ccc(C(F)(F)F)cc1
Saccharomyces cerevisiae [1]
  inhibition: < 50%

## Cc1ccc(S(=O)(=O)NCCc2c[nH]cn2)cc1
Saccharomyces cerevisiae [1]
  inhibition: < 50%

## OC[C@H]1NC[C@H](O)[C@@H](O)[C@H]1O
[2]
  IC50: 90 µM

## Cc1ccc(F)c(S(=O)(=O)NCCc2cn(S(=O)(=O)c3cc(C)ccc3F)cn2)c1
Kluyveromyces lactis
  inhibition: inactive
Saccharomyces cerevisiae [1]
  inhibition: > 50%
[3]
  inhibition: inactive
[4]
  inhibition (INH): Not Active
Prunus dulcis
  inhibition: inactive
[5]
  inhibition: 7.14%
Saccharomyces cerevisiae [6]
  inhibition: 72.2%
[7]
  inhibition (INH): Not Active

## O=S(=O)(NCCc1cn(S(=O)(=O)c2ccc(F)cc2)cn1)c1ccc(F)cc1
Saccharomyces cerevisiae [1]
  inhibition: > 50%

## O=S(=O)(NCCc1cn(S(=O)(=O)c2ccc(F)cc2Cl)cn1)c1ccc(F)cc1Cl
Saccharomyces cerevisiae [1]
  inhibition: > 50%

## O=S(=O)(NCCc1cn(S(=O)(=O)c2c(F)c(F)c(F)c(F)c2F)cn1)c1c(F)c(F)c(F)c(F)c1F
Saccharomyces cerevisiae [1]
  inhibition: > 50%

## OC[C@H]1NC[C@H](O)[C@@H](O)[C@@H]1O [DUVOGLUSTAT]
[8]
  IC50: 65.2 µM

## Cc1ccc(S(=O)(=O)NCCc2cn(S(=O)(=O)c3ccc(C)cc3)cn2)cc1
Saccharomyces cerevisiae [1]
  inhibition: > 50%

## COc1ccc(S(=O)(=O)NCCc2cn(S(=O)(=O)c3ccc(OC)c(F)c3)cn2)cc1F
Saccharomyces cerevisiae [1]
  inhibition: > 50%

## O=S(=O)(NCCc1cn(S(=O)(=O)c2ccc(C(F)(F)F)cc2)cn1)c1ccc(C(F)(F)F)cc1
[9]
  Activity: Non-Toxic
[10]
  Activity: Non-Toxic
Kluyveromyces lactis
  inhibition: inactive
Saccharomyces cerevisiae [1]
  inhibition: > 50%
[11]
  Activity: Non-Toxic
[12]
  Activity: Non-Toxic
[13]
  Activity: Non-Toxic
[3]
  inhibition: inactive
Saccharomyces cerevisiae [14]
  Activity: 97%
[4]
  inhibition (INH): Not Active
Prunus dulcis
  inhibition: inactive
[5]
  inhibition: 2.31%
Saccharomyces cerevisiae [6]
  inhibition: 79.9%
[7]
  inhibition (INH): Not Active
Mus musculus [15]
  Activity: Active
Mus musculus [16]
  Activity: Active
Saccharomyces cerevisiae [17]
  Ratio Ki: 7

## O=S(=O)(NCCc1cn(S(=O)(=O)c2cc(F)c(F)c(F)c2)cn1)c1cc(F)c(F)c(F)c1
Saccharomyces cerevisiae [1]
  inhibition: > 50%

## O=S(=O)(NCCc1cn(S(=O)(=O)c2ccccc2)cn1)c1ccccc1
Saccharomyces cerevisiae [1]
  inhibition: > 50%

## O=S(=O)(NCCc1c[nH]cn1)c1ccc(F)cc1
Saccharomyces cerevisiae [1]
  inhibition: < 50%

## O=S(=O)(NCCc1cn(S(=O)(=O)c2ccc(F)cc2C(F)(F)F)cn1)c1ccc(F)cc1C(F)(F)F
Saccharomyces cerevisiae [1]
  inhibition: > 50%

## O=S(=O)(NCCc1c[nH]cn1)c1ccccc1
Saccharomyces cerevisiae [1]
  inhibition: < 50%
